Reference: patent US7531195B2, “Schisandrin B preparation” (priority 2005, dated 2009)
Marks after values point to notes of the source that are not given here.

Tests used:
Hsp25 = assay: Tissue Hsp25 level in young female rats (Western blot); type: in vivo, rat; settings: 10 mg/kg daily, 15 days
Protocol: Female Sprague-Dawley rats (8 weeks old) were maintained under a 12-h dark/light cycle at about 22° C. and allowed food and water ad libitum. Drug treated animals received a daily bolus dose of (−) Schisandrin B, α-lipoic acid (α-LA) or α-tocopherol (α-Toc) at 10, 5 and 70 mg/kg, respectively, for 15 days. The dosages were determined with reference to the equivalent amount of crude herb prescribed for human or the daily recommended intake in health supplements. The control animals received olive oil only. Twenty-four hours after the last dose, the pentobarbital-anesthetized animals were sacrificed by cardiac excision, and brain. heart, liver and skeletal muscle tissues were obtained.
Hsp25 and Hsp70 levels was estimated by Western blot analysis using specific antibodies (anti-Hsp25, catalog #SPA-801; anti-Hsp70, catalog #SPA-812) from StressGen (Vancouver, BC, Canada) following SDS-PAGE analysis of the nuclear-free tissue homogenates, using a separating gel of 10% acrylamide as described in Ip et. al. (2001). Hsp25/27 and Hsp70 (human recombinant proteins from StressGen) and actin (bovine muscle from Sigma) were used as markers for reference. […] All immuno-blots were analyzed by densitometry, and the amounts (arbitrary units) of Hsp were normalized with reference to actin levels (arbitrary units) in the sample.

[1] = tested on: Isolated-Perfused Rat Heart; assay: Myocardial ischemia-reperfusion injury (LDH leakage), isolated-perfused heart of old rats; type: in vivo; settings: liposome-encapsulated, 10 mg/kg daily, 35 days
Protocol: Aged male and female rats (˜12 months old) were administered with liposome-encapsulated (−) Schisandrin B in drinking water for 35 days, with the daily dose estimated to be 10 mg/kg.
Male/Female adult Sprague-Dawley rats (˜12 months old) were maintained under a 12-h dark/light cycle at about 22° C. and allowed food and water ad libitum. Animals were randomly divided into groups, with at least 5 animals in each. In the pretreatment groups, rats were treated with liposome-encapsulated (−) Schisandrin B in drinking water for 35 days, with the estimated daily dose of 10 mg/kg. Control animals received empty liposomes-containing drinking water. Twenty-four hours following the last dosing, hearts were isolated from control or drug-pretreated rats and then subjected to Langendorff perfusion as described below.
The heart was excised quickly and immediately immersed in ice-cold and heparinized (50 unit/ml) saline. The aorta was cannulated and then transferred to a warm and moistured chamber of the perfusion apparatus. The heart was retrogradely perfused according to Langendorff method as described (Yim and Ko 1999).
After an initial 30-min of perfusion for equilibration, the isolated heart was subjected to a 40-min period of ‘no-flow’ global ischemia followed by 20 min of reperfusion. Coronary effluent was collected in 1-min fractions at increasing time intervals during the course of equilibration and reperfusion. The fractions were immediately put on ice until assay for lactate dehydrogenase (LDH) activity. The extent of LDH leakage during the reperfusion period, an indirect index of myocardial injury, was estimated by computing the area under the curve of the graph plotting the percent LDH activity (with respect to the mean pre-ischemic value measured during the equilibration period) against the reperfusion time (1-20 min), as described (Yim and Ko 1999). Immediately after the I-R procedure, heart ventricular tissue samples were obtained for biochemical analysis.

Myocardial Mitochondria = assay: Myocardial mitochondrial glutathione antioxidant status, young male and female rats; type: in vivo, rat; settings: 35 days
Protocol: Male/Female adult Sprague-Dawley rats (˜10 weeks old) were maintained under a 12-h dark/light cycle at about 22° C. and allowed food and water ad libitum. Animals were randomly divided into groups, with at least 5 animals in each. In the pretreatment groups, rats were treated intragastrically with (−) Schisandrin B at a daily dose of 1 or 10 mg/kg for 35 days. Control animals received oil only (10 ml/kg). Twenty-four hours following the last dosing, hearts were isolated from control or drug-pretreated rats and then subjected to Langendorff perfusion as described below.
Myocardial tissue samples were rinsed with ice-cold isotonic buffer (50 mM Tris, 0.32 M sucrose, 1 mM Na2EDTA, 0.2 mg/ml soybean trypsin inhibitor, 0.2 mg/ml bacitracine, 0.16 mg/ml benzamidine). Tissue homogenates were prepared by homogenizing 0.8 g of myocardial tissue in 8 ml ice-cold isotonic buffer and the homogenates were used for the preparation of mitochondrial fractions by differential centrifugation, as described in Chiu and Ko (2004). The mitochondrial pellets were resuspended in 1.5 ml of isotonic buffer containing 150 μl of 2 mg/ml soybean trypsin inhibitor and constituted the mitochondrial fractions.
Aliquots (500 μl) of mitochondrial fractions were taken for measuring mitochondrial GSH level by HPLC methods, using GSH as standards, respectively, as described (Chiu et al 2002). Aliquots (400 μl) of mitochondrial fractions were mixed with 933 μl Triton X-100 solution (0.3%, v/v, in isotonic buffer) and sonicated for 2 min on ice. The mixtures were then subjected to measurements of mitochondrial glutathione reductase (GRD), Se-glutathione peroxidase (GPX) and glutathione S-transferases (GST) activities by spectrophotometric methods, as described in Chiu et al. (2002).

[2] = female rats, 1 mg/kg daily oral
[3] = female rats, 10 mg/kg daily oral

How did the “changes in Hsp25 level in all tissues” value (Hsp25) turn out when COc1cc2c(c(OC)c1OC)-c1c(cc3c(c1OC)OCO3)CC(C)C(C)C2 (single isomer, unassigned; (-)) [(−) Sch B, (−) Schisandrin B] was run?
The value was “No detectable changes”.

And the “Heat Shock Protein Level, Hsp25” value (Hsp25; BRAIN)?
Its value is 0.16 ± 0.01 AU.

And the “Heat Shock Protein Level, Hsp25” value (Hsp25; HEART)?
Its value is 0.77 ± 0.05 AU.

What about the “Heat Shock Protein Level, Hsp25” value (Hsp25; LIVER) of the same molecule?
The value was 0.41 ± 0.02 AU.

What about the “Heat Shock Protein Level, Hsp25” value (Hsp25; SKELETAL MUSCLE) of the same molecule?
Its value is 0.59 ± 0.03 AU.

And the “LDH Leakage” value ([1]; I-R, old female)?
Its value is 4534 ± 86.5^b AU.

What about the “LDH Leakage, percent protection vs unpretreated control” value ([1]; I-R, old female) of the same molecule?
The value was “(56%)”.

What about the “LDH Leakage” value ([1]; I-R, old male) of the same molecule?
The value was 2426 ± 219^a AU.

What about the “LDH Leakage, percent protection vs unpretreated control” value ([1]; I-R, old male) of the same molecule?
The value was “(62%)”.

And the “LDH Leakage” value ([1]; NON-I-R, old female)?
Its value is 611 ± 49.7 AU.

And the “LDH Leakage” value ([1]; NON-I-R, old male)?
Its value is 570 ± 66.8 AU.

And the GPX (Myocardial Mitochondria; [2])?
The GPX was 73.2 ± 4.98^b mU/mg Protein.

And the “GPX, percent increase vs untreated control” value (from here on “GPX, percent increase”) (Myocardial Mitochondria; [2])?
Its value is “(43%)”.

What about the GRD (Myocardial Mitochondria; [2]) of the same molecule?
Its GRD is 6.30 ± 0.37^b mU/mg protein.

And the “GRD, percent increase vs untreated control” value (from here on “GRD, percent increase”) (Myocardial Mitochondria; [2])?
Its value is “(34%)”.

What about the GSH (Myocardial Mitochondria; [2]) of the same molecule?
The GSH was 17.3 ± 1.11^b nmol/mg protein.

And the “GSH, percent increase vs untreated control” value (from here on “GSH, percent increase”) (Myocardial Mitochondria; [2])?
The value was “(60%)”.

What about the GST (Myocardial Mitochondria; [2]) of the same molecule?
Its GST is 14.1 ± 0.58^b mU/mg protein.

What about the “GST, percent increase vs untreated control” value (from here on “GST, percent increase”) (Myocardial Mitochondria; [2]) of the same molecule?
The value was “(37%)”.

What about the GPX (Myocardial Mitochondria; [3]) of the same molecule?
The GPX was 78.3 ± 2.94^b mU/mg Protein.

What about the “GPX, percent increase” value (Myocardial Mitochondria; [3]) of the same molecule?
Its value is “(53%)”.

What about the GRD (Myocardial Mitochondria; [3]) of the same molecule?
Its GRD is 8.02 ± 0.55^b mU/mg protein.

And the “GRD, percent increase” value (Myocardial Mitochondria; [3])?
The value was “(71%)”.

What about the GSH (Myocardial Mitochondria; [3]) of the same molecule?
The GSH was 21.6 ± 0.38^b nmol/mg protein.

And the “GSH, percent increase” value (Myocardial Mitochondria; [3])?
Its value is “(107%)”.

And the GST (Myocardial Mitochondria; [3])?
Its GST is 16.9 ± 0.90^b mU/mg protein.

And the “GST, percent increase” value (Myocardial Mitochondria; [3])?
The value was “(63%)”.

What about the GPX (Myocardial Mitochondria; male rats, 1 mg/kg daily oral) of the same molecule?
The GPX was 77.3 ± 3.78^a mU/mg Protein.

What about the “GPX, percent increase” value (Myocardial Mitochondria; male rats, 1 mg/kg daily oral) of the same molecule?
Its value is “(48%)”.

What about the GRD (Myocardial Mitochondria; male rats, 1 mg/kg daily oral) of the same molecule?
Its GRD is 6.76 ± 0.29 mU/mg protein.

What about the “GRD, percent increase” value (Myocardial Mitochondria; male rats, 1 mg/kg daily oral) of the same molecule?
The value was “(26%)”.

And the GSH (Myocardial Mitochondria; male rats, 1 mg/kg daily oral)?
The GSH was 18.1 ± 1.06^a nmol/mg protein.

What about the “GSH, percent increase” value (Myocardial Mitochondria; male rats, 1 mg/kg daily oral) of the same molecule?
The value was “(56%)”.

What about the GST (Myocardial Mitochondria; male rats, 1 mg/kg daily oral) of the same molecule?
Its GST is 12.8 ± 0.10 mU/mg protein.

What about the “GST, percent increase” value (Myocardial Mitochondria; male rats, 1 mg/kg daily oral) of the same molecule?
Its value is “(65%)”.

And the GPX (Myocardial Mitochondria; male rats, 10 mg/kg daily oral)?
Its GPX is 83.7 ± 2.12^a mU/mg Protein.

What about the “GPX, percent increase” value (Myocardial Mitochondria; male rats, 10 mg/kg daily oral) of the same molecule?
The value was “(60%)”.

What about the GRD (Myocardial Mitochondria; male rats, 10 mg/kg daily oral) of the same molecule?
Its GRD is 7.59 ± 0.13^a mU/mg protein.

And the “GRD, percent increase” value (Myocardial Mitochondria; male rats, 10 mg/kg daily oral)?
The value was “(42%)”.

And the GSH (Myocardial Mitochondria; male rats, 10 mg/kg daily oral)?
Its GSH is 23.8 ± 1.10^a nmol/mg protein.

And the “GSH, percent increase” value (Myocardial Mitochondria; male rats, 10 mg/kg daily oral)?
Its value is “(105%)”.

What about the GST (Myocardial Mitochondria; male rats, 10 mg/kg daily oral) of the same molecule?
The GST was 14.5 ± 0.36^a mU/mg protein.

What about the “GST, percent increase” value (Myocardial Mitochondria; male rats, 10 mg/kg daily oral) of the same molecule?
The value was “(83%)”.
